# Active and inactive are the calls of the source. The rule behind the calls is not given here.
# Experiments:
# [1] = target: B-cell receptor CD22 (Homo sapiens) (UniProt P20273); assay: Binding affinity against CD22 adhesion protein;no effect
# [2] = target: B-cell receptor CD22 (Homo sapiens) (UniProt P20273); assay: Binding affinity against CD22 adhesion protein; no effect
# [3] = target: B-cell receptor CD22 (Homo sapiens) (UniProt P20273); assay: Binding affinity against CD22 adhesion protein in ELISA competition assay;no effect
# Sequence of B-cell receptor CD22 (Homo sapiens) (P20273 whole entry): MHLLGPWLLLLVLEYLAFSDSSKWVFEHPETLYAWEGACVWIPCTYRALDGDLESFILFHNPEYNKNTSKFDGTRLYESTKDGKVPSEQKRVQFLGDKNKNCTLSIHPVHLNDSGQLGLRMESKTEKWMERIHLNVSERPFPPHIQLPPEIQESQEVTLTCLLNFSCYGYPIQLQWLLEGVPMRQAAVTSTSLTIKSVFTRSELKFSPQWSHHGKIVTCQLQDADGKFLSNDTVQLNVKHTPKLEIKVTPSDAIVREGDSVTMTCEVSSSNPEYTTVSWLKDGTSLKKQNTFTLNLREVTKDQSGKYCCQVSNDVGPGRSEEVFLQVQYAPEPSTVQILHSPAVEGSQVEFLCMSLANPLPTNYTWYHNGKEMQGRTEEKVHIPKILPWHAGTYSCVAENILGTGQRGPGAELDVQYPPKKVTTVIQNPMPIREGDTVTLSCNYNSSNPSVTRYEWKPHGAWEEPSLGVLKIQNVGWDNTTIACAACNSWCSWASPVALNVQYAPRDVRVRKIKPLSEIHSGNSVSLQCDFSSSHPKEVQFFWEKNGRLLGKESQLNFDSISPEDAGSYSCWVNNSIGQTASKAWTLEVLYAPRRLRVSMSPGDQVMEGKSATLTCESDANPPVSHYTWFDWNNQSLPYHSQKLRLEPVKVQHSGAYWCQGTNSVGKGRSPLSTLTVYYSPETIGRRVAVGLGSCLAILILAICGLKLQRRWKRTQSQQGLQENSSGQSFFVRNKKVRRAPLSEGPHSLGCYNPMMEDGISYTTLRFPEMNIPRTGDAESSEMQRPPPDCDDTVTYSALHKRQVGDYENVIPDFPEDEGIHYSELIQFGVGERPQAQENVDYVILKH
SMILES,Activity [1],also measured
CC(=O)N[C@@H]1[C@@H](O)C[C@](OC[C@H]2O[C@H](Oc3ccccc3[N+](=O)[O-])[C@H](NC(C)=O)[C@@H](O[C@@H]3O[C@H](COS(=O)(=O)O)[C@H](O)[C@H](O)[C@H]3O)[C@H]2O)(C(=O)O)O[C@H]1C(O)C(O)CO (stereo partly drawn),inactive,–
CC(=O)OCC1OC(Br)C(OC(C)=O)C(OC(=O)CCl)C1OC(C)=O (stereo not drawn),inactive,–
CC(=O)N[C@@H]1[C@@H](Oc2ccccc2[N+](=O)[O-])O[C@@H](COS(=O)(=O)O)[C@H](O)[C@@H]1O[C@@H]1O[C@@H](COS(=O)(=O)O)[C@H](O)[C@H](O)[C@@H]1O,inactive,–
O=C(CBr)OCC1OC(Br)C(OC(=O)c2ccccc2)C(OC(=O)c2ccccc2)C1OC(=O)c1ccccc1 (stereo not drawn),–,Activity [2]: inactive
CC(=O)N[C@@H]1[C@@H](Oc2ccccc2[N+](=O)[O-])O[C@@H](CO)[C@H](O)[C@@H]1O[C@@H]1O[C@@H](COS(=O)(=O)O)[C@H](O)[C@H](O)[C@@H]1O,inactive,–
CC(=O)N[C@@H]1[C@@H](Oc2ccccc2[N+](=O)[O-])O[C@@H](CO)[C@H](O)[C@@H]1O[C@@H]1O[C@@H](CO)[C@H](O)[C@H](OS(=O)(=O)O)[C@@H]1O,inactive,–
CC(=O)N[C@@H]1[C@@H](O)C[C@](OC[C@H]2O[C@@H](Oc3ccc([N+](=O)[O-])cc3)[C@H](NC(C)=O)[C@@H](O[C@@H]3O[C@H](CO)[C@H](O)[C@H](O)[C@H]3O)[C@@H]2O)(C(=O)O)O[C@H]1C(O)C(O)CO (stereo partly drawn),–,Activity [3]: inactive
CC(=O)N[C@@H]1[C@@H](O)C[C@](OC[C@H]2O[C@@H](Oc3ccc([N+](=O)[O-])cc3)[C@H](NC(C)=O)[C@@H](O[C@@H]3O[C@H](COS(=O)(=O)O)[C@H](O)[C@H](O)[C@H]3O)[C@@H]2O)(C(=O)O)O[C@H]1C(O)C(O)CO (stereo partly drawn),–,Activity [3]: inactive

# From ChEMBL document CHEMBL1150017, “A convenient synthesis of sulfated and sialyl oligosaccharides as potential ligands for CD22 adhesion protein” (Bioorg Med Chem Lett, 1995)
